ChEMBL document CHEMBL3885881, “DrugMatrix”

Species: Rattus norvegicus
Assay: DrugMatrix - Regimen: Daily Repeat
Type: toxicity, organism-based, Sprague-Dawley
Design: regimen Daily Repeat, gender Male, age 6-8 weeks
Settings: in vivo, po, route oral GAVAGE, vehicle .5 % CMC; for BASOPHIL / EOSINOPHIL / ERYTHROCYTE COUNT / HEMATOCRIT / HEMOGLOBIN / LEUKOCYTE COUNT / LYMPHOCYTE / MEAN CORPUSCULAR HEMOGLOBIN / MEAN CORPUSCULAR HEMOGLOBIN CONCENTRATION / MEAN CORPUSCULAR VOLUME / MONOCYTE / NEUTROPHIL / PLATELET COUNT: tissue Blood; for ALANINE AMINOTRANSFERASE / ALBUMIN / ALKALINE PHOSPHATASE / ASPARTATE AMINOTRANSFERASE / BLOOD UREA NITROGEN / CHLORIDE / CHOLESTEROL / CREATINE PHOSPHOKINASE / CREATININE / GLUCOSE / PHOSPHORUS / POTASSIUM / SODIUM / TOTAL BILIRUBIN / TOTAL PROTEIN: tissue Plasma
[1] = 750 mg/kg, 120 h, dose level Low, time 5 day
[2] = 2000 mg/kg, 72 h, dose level High, time 3 day
[3] = 2000 mg/kg, 120 h, dose level High, time 5 day

NCC(=O)O [GLYCINE]
BASOPHIL [1]: 0% | EOSINOPHIL [1]: 0% | ERYTHROCYTE COUNT [1]: 6.26 x10E6/uL | HEMATOCRIT [1]: 38.2% | HEMOGLOBIN [1]: 15 G/DL | LEUKOCYTE COUNT [1]: 13 x10E3/uL | LYMPHOCYTE [1]: 89.67% | MEAN CORPUSCULAR HEMOGLOBIN [1]: 23.97 pg | MEAN CORPUSCULAR HEMOGLOBIN CONCENTRATION [1]: 39.27 G/DL | MEAN CORPUSCULAR VOLUME [1]: 61.1 fL | MONOCYTE [1]: 0.33% | NEUTROPHIL [1]: 10% | PLATELET COUNT [1]: 1041.67 x10E3/uL | ALANINE AMINOTRANSFERASE [1]: 32 u/L | ALBUMIN [1]: 3.73 G/DL | ALKALINE PHOSPHATASE [1]: 311.33 u/L | ASPARTATE AMINOTRANSFERASE [1]: 55.33 u/L | BLOOD UREA NITROGEN [1]: 12.33 mg/dL | CHLORIDE [1]: 99.33 MEQ/L | CHOLESTEROL [1]: 59.67 mg/dL | CREATINE PHOSPHOKINASE [1]: 148 u/L | CREATININE [1]: 0.57 mg/dL | GLUCOSE [1]: 154 mg/dL | PHOSPHORUS [1]: 11.67 mg/dL | POTASSIUM [1]: 5.97 MEQ/L | SODIUM [1]: 144.33 MEQ/L | TOTAL BILIRUBIN [1]: 0.33 mg/dL | TOTAL PROTEIN [1]: 6.07 G/DL | BASOPHIL [2]: 0% | EOSINOPHIL [2]: 0% | ERYTHROCYTE COUNT [2]: 6.16 x10E6/uL | HEMATOCRIT [2]: 36.47% | HEMOGLOBIN [2]: 14 G/DL | LEUKOCYTE COUNT [2]: 12.17 x10E3/uL | LYMPHOCYTE [2]: 89.67% | MEAN CORPUSCULAR HEMOGLOBIN [2]: 22.77 pg | MEAN CORPUSCULAR HEMOGLOBIN CONCENTRATION [2]: 38.4 G/DL | MEAN CORPUSCULAR VOLUME [2]: 59.23 fL | MONOCYTE [2]: 1.33% | NEUTROPHIL [2]: 9% | PLATELET COUNT [2]: 1124.67 x10E3/uL | ALANINE AMINOTRANSFERASE [2]: 31.33 u/L | ALBUMIN [2]: 3.53 G/DL | ALKALINE PHOSPHATASE [2]: 262.33 u/L | ASPARTATE AMINOTRANSFERASE [2]: 51.67 u/L | BLOOD UREA NITROGEN [2]: 12 mg/dL | CHLORIDE [2]: 100.33 MEQ/L | CHOLESTEROL [2]: 57.33 mg/dL | CREATINE PHOSPHOKINASE [2]: 113.33 u/L | CREATININE [2]: 0.37 mg/dL | GLUCOSE [2]: 157.67 mg/dL | PHOSPHORUS [2]: 12.17 mg/dL | POTASSIUM [2]: 6.6 MEQ/L | SODIUM [2]: 145.67 MEQ/L | TOTAL BILIRUBIN [2]: 0.2 mg/dL | TOTAL PROTEIN [2]: 5.57 G/DL | BASOPHIL [3]: 0% | EOSINOPHIL [3]: 0.33% | ERYTHROCYTE COUNT [3]: 6.21 x10E6/uL | HEMATOCRIT [3]: 36.87% | HEMOGLOBIN [3]: 14.97 G/DL | LEUKOCYTE COUNT [3]: 15.13 x10E3/uL | LYMPHOCYTE [3]: 88.67% | MEAN CORPUSCULAR HEMOGLOBIN [3]: 24.1 pg | MEAN CORPUSCULAR HEMOGLOBIN CONCENTRATION [3]: 40.6 G/DL | MEAN CORPUSCULAR VOLUME [3]: 59.4 fL | MONOCYTE [3]: 1.33% | NEUTROPHIL [3]: 9.67% | PLATELET COUNT [3]: 1238.67 x10E3/uL | ALANINE AMINOTRANSFERASE [3]: 33.67 u/L | ALBUMIN [3]: 3.63 G/DL | ALKALINE PHOSPHATASE [3]: 237 u/L | ASPARTATE AMINOTRANSFERASE [3]: 55.67 u/L | BLOOD UREA NITROGEN [3]: 12.33 mg/dL | CHLORIDE [3]: 100.67 MEQ/L | CHOLESTEROL [3]: 62 mg/dL | CREATINE PHOSPHOKINASE [3]: 118.67 u/L | CREATININE [3]: 0.5 mg/dL | GLUCOSE [3]: 159.67 mg/dL | PHOSPHORUS [3]: 11.77 mg/dL | POTASSIUM [3]: 6.63 MEQ/L | SODIUM [3]: 146.67 MEQ/L | TOTAL BILIRUBIN [3]: 0.27 mg/dL | TOTAL PROTEIN [3]: 5.93 G/DL
